Measured values from patent EP1832576A1, “4-Biarylyl-1-phenolyzetidin-2-ones” (Microbia Inc., priority 2003, dated 2005).

System: cholesterol absorption from the intestine
Assay: In Vivo Assay of Hypolipidemic Agents using the Rat Cholesterol Absorption Model
Parameters: species or system Female Sprague-Dawley rats
Conditions: po, Table 1, perorally, 1 mg/kg, 3H levels in serum three hours after 3H-cholesterol, versus vehicle only control
Experimental: In Vivo Assay of Hypolipidemic Agents using the Rat Cholesterol Absorption Model. This model is based on models described by Burnett et al (2002), Bioorg. Med. Chem. Lett. 2002 Feb 11;12(3):315-8 and J. Lipid Res. 1999 Oct;40(10):1747-57. Female Sprague-Dawley rats weighing 150-250g are separated into […] and fasted overnight. The animals (4-6/group) are dosed perorally with 300µL test compounds in olive oil or suitable vehicle. Thirty minutes later, 3-5 microCuries ^3H-cholesterol per rat are delivered perorally in 300 µL olive oil. After three hours, 200 µL serum is collected, vortexed with scintillation fluid, and measured for radioactivity in a scintillation counter. Percent inhibition is defined as 100*(1-Ctest/Cctrl), where Ctest and Cctrl refer to ^3H levels in serum for the test compound and for the vehicle only control, respectively. Percent inhibition values are reported for a fixed dose. The ED50 is the dose at which the half-maximal effect on serum ^3H levels is observed for a given test compound.
Representative compounds of the invention were tested in the Rat Cholesterol Absorption model above.

**Q.** `CS(=O)(=O)c1ccc(-c2ccc([C@@H]3[C@@H](CC[C@H](O)c4ccc(F)cc4)C(=O)N3c3ccc(F)cc3)cc2)cc1` [Example 8, (3R,4S)-1-(4-fluorophenyl)-3-[(3S)-3-(4-fluorophenyl)-3-hydroxypropyl]-4-[4'-(methylsulfonyl)biphenyl-4-yl]azetidin-2-one] was tested. Which inhibition at 1 mg/kg did it give?
**A.** 53%

**Q.** How did the inhibition at 1 mg/kg turn out when `O=C1[C@H](CC[C@H](O)c2ccc(F)cc2)[C@@H](c2ccc(-c3cccc(S)c3)cc2)N1c1ccc(F)cc1` [Example 119, (3R,4S)-1-(4-fluorophenyl)-3-[(3S)-3-(4-fluorophenyl)-3-hydroxypropyl]-4-(3'-mercaptobiphenyl-4-yl)azetidin-2-one] was run?
**A.** 56%

**Q.** How did the inhibition at 1 mg/kg turn out when `O=C1C(CCC(O)c2ccc(F)cc2)C(c2ccc(-c3ccc(CO)cc3)cc2)N1c1ccc(F)cc1` (stereo not shown) [Example 18] was run?
**A.** 48%

**Q.** For `O=C(O)[C@@H]1O[C@H](Oc2cccc(-c3ccc([C@@H]4[C@@H](CC[C@H](O)c5ccc(F)cc5)C(=O)N4c4ccc(F)cc4)cc3)c2)[C@@H](O)[C@H](O)[C@H]1O` [Example 20, 4'-{(2S,3R)-1-(4-fluorophenyl)-3-[(3S)-3-(4-fluorophenyl)-3-hydroxypropyl]-4-oxoazetidin-2-yl}biphenyl-3-yl β-L-glucopyranosiduronic acid], which inhibition at 1 mg/kg is on record?
**A.** 59%

**Q.** With `CCOc1cccc(-c2ccc([C@@H]3[C@@H](CC[C@H](O)c4ccc(F)cc4)C(=O)N3c3ccc(F)cc3)cc2)c1` [Example 100, (3R,4S)-4-(3'-ethoxybiphenyl-4-yl)-1-(4-fluorophenyl)-3-[(3S)-3-(4-fluorophenyl)-3-hydroxypropyl]azetidin-2-one] as the molecule, how does the inhibition at 1 mg/kg read?
**A.** 54%

**Q.** How did the inhibition at 1 mg/kg turn out when `O=C1[C@H](CC[C@H](O)c2ccc(F)cc2)[C@@H](c2ccc(-c3ccc4c(c3)OCCO4)cc2)N1c1ccc(F)cc1` [Example 87, (3R,4S)-4-[4-(2,3-dihydro-1,4-benzodioxin-6-yl)phenyl]-1-(4-fluorophenyl)-3-[(3S)-3-(4-fluorophenyl)-3-hydroxypropyl]azetidin-2-one] was run?
**A.** 59%

**Q.** How did the inhibition at 1 mg/kg turn out when `O=C1[C@H](CC[C@H](O)c2ccc(F)cc2)[C@@H](c2ccc(-c3cccc(S(=O)(=O)O)c3)cc2)N1c1ccc(F)cc1` [Example 118, 4'-{(2S,3R)-1-(4-fluorophenyl)-3-[(3S)-3-(4-fluorophenyl)-3-hydroxypropyl]-4-oxoazetidin-2-yl}biphenyl-3-sulfonic acid] was run?
**A.** 61%

**Q.** Which inhibition at 1 mg/kg does the source give for `O=C1[C@H](CC[C@H](O)c2ccc(F)cc2)[C@@H](c2ccc(-c3ccc(O)cc3)cc2)N1c1ccc(F)cc1` [Example 2, (3R,4S)-1-(4-fluorophenyl)-3-[(3S)-3-(4-fluorophenyl)-3-hydroxypropyl]-4-(4'-hydroxybiphenyl-4-yl)azetidin-2-one] here?
**A.** 54%

**Q.** How did the inhibition at 1 mg/kg turn out when `O=C1[C@H](CC[C@H](O)c2ccc(F)cc2)[C@@H](c2ccc(-c3cccc(C[C@@H]4O[C@H](CO)[C@@H](O)[C@H](O)[C@H]4O)c3)cc2)N1c1ccc(F)cc1` [Example 117, 2,6-anhydro-1-deoxy-1-(4'-{(2S,3R)-1-(4-fluorophenyl)-3-[(3S)-3-(4-fluorophenyl)-3-hydroxypropyl]-4-oxoazetidin-2-yl}biphenyl-3-yl)-D-glycero-D-gulo-heptitol] was run?
**A.** 26%

**Q.** `COc1cccc(-c2ccc([C@@H]3[C@@H](CC[C@H](O)c4ccc(F)cc4)C(=O)N3c3ccc(F)cc3)cc2)c1OC` [Example 11, (3R,4S)-4-(2',3'-dimethoxybiphenyl-4-yl)-1-(4-fluorophenyl)-3-[(3S)-3-(4-fluorophenyl)-3-hydroxypropyl]azetidin-2-one] was tested. Which inhibition at 1 mg/kg did it give?
**A.** 28%

**Q.** Which inhibition at 1 mg/kg does the source give for `O=C1[C@H](CC[C@H](O)c2ccc(F)cc2)[C@@H](c2ccc(-c3ccc([C@H]4O[C@@H](CO)[C@H](O)[C@@H](O)[C@@H]4O)cc3)cc2)N1c1ccc(F)cc1` [Example 116, (1R)-1,5-anhydro-1-(4'-{(2S,3R)-1-(4-fluorophenyl)-3-[(3S)-3-(4-fluorophenyl)-3-hydroxypropyl]-4-oxoazetidin-2-yl}biphenyl-4-yl)-L-glucitol] here?
**A.** 81%

**Q.** With `O=C1[C@H](CC[C@H](O)c2ccc(F)cc2)[C@@H](c2ccc(-c3cccc([C@@H]4O[C@@H](CO)[C@H](O)[C@@H](O)[C@@H]4O)c3)cc2)N1c1ccc(F)cc1` [Example 113, (1S)-1,5-anhydro-1-(4'-{(2S,3R)-1-(4-fluorophenyl)-3-[(3S)-3-(4-fluorophenyl)-3-hydroxypropyl]-4-oxoazetidin-2-yl}biphenyl-3-yl)-L-glucitol] as the molecule, how does the inhibition at 1 mg/kg read?
**A.** 67%

**Q.** How did the inhibition at 1 mg/kg turn out when `COc1cc(OC)cc(-c2ccc([C@@H]3[C@@H](CC[C@H](O)c4ccc(F)cc4)C(=O)N3c3ccc(F)cc3)cc2)c1` [Example 107, (3R,4S)-4-(3',5'-dimethoxybiphenyl-4-yl)-1-(4-fluorophenyl)-3-[(3S)-3-(4-fluorophenyl)-3-hydroxypropyl]azetidin-2-one] was run?
**A.** 49%

**Q.** `Nc1ccc(-c2ccc([C@@H]3[C@@H](CC[C@H](O)c4ccc(F)cc4)C(=O)N3c3ccc(F)cc3)cc2)cc1` [Example 28, (3R,4S)-1-(4-fluorophenyl)-3-[(3S)-3-(4-fluorophenyl)-3-hydroxypropyl]-4-(4'-aminobiphenyl-4-yl)azetidin-2-one] was tested. Which inhibition at 1 mg/kg did it give?
**A.** 56%

**Q.** With `O=C1[C@H](CC[C@H](O)c2ccc(F)cc2)[C@@H](c2ccc(-c3cc(O)ccc3Br)cc2)N1c1ccc(F)cc1` [Example 19, (3R,4S)-4-(2'-bromo-5'-hydroxybiphenyl-4-yl)-1-(4-fluorophenyl)-3-[(3S)-3-(4-fluorophenyl)-3-hydroxypropyl]azetidin-2-one] as the molecule, how does the inhibition at 1 mg/kg read?
**A.** 66%

**Q.** Which inhibition at 1 mg/kg does the source give for `O=C(O)c1ccc(-c2ccc([C@@H]3[C@@H](CC[C@H](O)c4ccc(F)cc4)C(=O)N3c3ccc(F)cc3)cc2)cc1` [Example 22, 4'-{(2S,3R)-1-(4-fluorophenyl)3-[(3S)-3-(4-fluorophenyl)-3-hydroxypropyl]-4-oxoazetidin-2-yl]biphenyl-4-carboxylic acid] here?
**A.** 52%

**Q.** `Cc1cccc(-c2ccc([C@@H]3[C@@H](CC[C@H](O)c4ccc(F)cc4)C(=O)N3c3ccc(F)cc3)cc2)c1` [Example 93, (3R,4S)-1-(4-fluorophenyl)-3-[(3S)-3-(4-fluorophenyl)-3-hydroxypropyl]-4-(3'-methylbiphenyl-4-yl)azetidin-2-one] was tested. Which inhibition at 1 mg/kg did it give?
**A.** 28%

**Q.** For `COc1cc(F)cc(-c2ccc([C@@H]3[C@@H](CC[C@H](O)c4ccc(F)cc4)C(=O)N3c3ccc(F)cc3)cc2)c1` [Example 111, (3R,4S)-4-(3'-fluoro-5'-methoxybiphenyl-4-yl)-1-(4-fluorophenyl)-3-[(3S)-3-(4-fluorophenyl)-3-hydroxypropyl]azetidin-2-one], which inhibition at 1 mg/kg is on record?
**A.** 72%

**Q.** `COc1cccc(-c2ccc([C@@H]3[C@@H](CC[C@H](O)c4ccc(F)cc4)C(=O)N3c3ccc(F)cc3)cc2)c1` [Example 12, (3R,4S)-1-(4-fluorophenyl)-3-[(3S)-3-(4-fluorophenyl)-3-hydroxypropyl]-4-(3'-methoxybiphenyl-4-yl)azetidin-2-one] was tested. Which inhibition at 1 mg/kg did it give?
**A.** 70%

Same assay, conditions: po, Table 2, footnote 5, perorally, 0.1 mg/kg

**Q.** Which inhibition at 0.1 mg/kg does the source give for `O=C1[C@H](CC[C@H](O)c2ccc(F)cc2)[C@@H](c2ccc(-c3cccc([C@@H]4O[C@H](CO)[C@@H](O)[C@H](O)[C@H]4O)c3)cc2O)N1c1ccccc1` [Example 65, (1S)-1,5-anhydro-1-(4'-{(2S,3R)-3-[(3S)-3-(4-fluorophenyl)-3-hydroxypropyl]-4-oxo-1-phenylazetidin-2-yl}-3'-hydroxybiphenyl-3-yl)-D-glucitol] here?
**A.** 60%

Same assay, conditions: po, Table 2, footnote 6, perorally, 0.3 mg/kg

**Q.** Which inhibition at 0.3 mg/kg does the source give for `O=C1[C@H](CC[C@H](O)c2ccc(F)cc2)[C@@H](c2ccc(-c3ccc([C@@H]4O[C@H](CO)[C@@H](O)[C@H](O)[C@H]4O)cc3)cc2O)N1c1ccccc1` [Example 66, (1S)-1,5-Anhydro-1-(4'-{(2S,3R)-3-[(3S)-3-(4-fluorophenyl)-3-hydroxypropyl]-4-oxo-1-phenylazetidin-2-yl}-3'-hydroxybiphenyl-4-yl)-D-glucitol] here?
**A.** 71%

Same assay, conditions: po, Table 2, footnote mark 3 (defined only under Table 1: 5 mg/kg), perorally

**Q.** For `O=C1[C@H](CC[C@H](O)c2ccc(F)cc2)[C@@H](c2ccc(-c3cccc(P(=O)(O)O)c3)cc2O)N1c1ccccc1` [Example 61, (4'-{(2S,3R)-3-[(3S)-3-(4-Fluorophenyl)-3-hydroxypropyl]-4-oxo-1-phenylazetidin-2-yl}-3'-hydroxybiphenyl-3-yl)phosphonic acid], which inhibition at 5 mg/kg is on record?
**A.** 58%

Same assay, conditions: po, Table 2, perorally, 1 mg/kg, 3H levels in serum three hours after 3H-cholesterol, versus vehicle only control

**Q.** How did the inhibition at 1 mg/kg turn out when `O=C1[C@H](CC[C@H](O)c2ccc(F)cc2)[C@@H](c2ccc(-c3cccc([C@H](O)[C@@H](O)[C@@H](O)[C@H](O)[C@@H](O)CO)c3)cc2O)N1c1ccccc1` [Example 75, (6S)-6-C-(4'-{(2S,3R)-3-[(3S)-3-(4-Fluorophenyl)-3-hydroxypropyl]-4-oxo-1-phenylazetidin-2-yl}-3'-hydroxybiphenyl-3-yl)-D-glucitol] was run?
**A.** 68%

**Q.** For `O=C1[C@H](CC[C@H](O)c2ccc(F)cc2)[C@@H](c2ccc(-c3cccc(O)c3)cc2O)N1c1ccccc1` [Example 42, (3R,4S)-4-(3,3'-Dihydroxybiphenyl-4-yl)-3-[(3S)-3-(4-fluorophenyl)-3-hydroxypropyl]-1-phenylazetidin-2-one], which inhibition at 1 mg/kg is on record?
**A.** 87%

**Q.** Which inhibition at 1 mg/kg does the source give for `O=C1[C@H](CC[C@H](O)c2ccc(F)cc2)[C@@H](c2ccc(-c3cccc(O)c3)cc2)N1c1ccccc1` [Example 57, (3R,4S)-3-[(3S)-3-(4-Fluorophenyl)-3-hydroxypropyl]-4-(3'-hydroxybiphenyl-4-yl)-1-phenylazetidin-2-one] here?
**A.** 73%
